Results published in PubChem BioAssay AID1845197 (Molecular Pharmacology Branch, DTP, NCI, 2023).
Several values for one entry are separate records, joined by “and”; a condition that tells them apart may be missing. Equal entries are not always repeated.

Tested on: 349418-098-R tumor spheroid viability
Assay: Anticancer human tumor 349418-098-R patient-derived lung adenocarcinoma cell line growth inhibition
Settings: spheroids with HUVEC and MSC; for viability, T/C: stronger effect = lower value
Outline: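 Complex tumor spheroids combined malignant cells with endothelial cells and mesenchymal stem cells. DNA-damaging drugs and DNA repair inhibitors were tested alone and in combination, at half-log dilutions down from clinical Cmax (top 10 microM if Cmax unknown), 0.25% DMSO final.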
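Note: spheroids exposed to compound for 7 days before measurement.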
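Throughout, for viability, T/C: percent of vehicle control viability with 100% = DMSO-treated spheroids.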

With `CC(C)n1c(=O)n(C)c2cnc3cc(F)c(-c4ccc(OCCCN5CCCCC5)nc4)cc3c21` + COc1cc2c(cc1O)CCNC21CSC2c3c(OC(C)=O)c(C)c4c(c3C(COC1=O)N1C(O)C3Cc5cc(C)c(OC)c(O)c5C(C21)N3C)OCO4 the IC50 (curve of first compound, second compound 30 pM) was > 10000 nM, the IC50 (curve of first compound, second compound 94.9 pM) was > 10000 nM and the IC50 (curve of first compound, second compound 0.0003 µM) was < 31.6 nM. The IC50 (curve of first compound, second compound 0.000949 µM) was < 31.6 nM, the IC50 (curve of first compound, second compound 0.003 µM) was < 31.6 nM and the viability, T/C (second compound 30 pM, first compound 0.0316 µM) was 91.8%. The viability, T/C (second compound 30 pM, first compound 0.1 µM) was 97.4%, the viability, T/C (second compound 30 pM, first compound 0.316 µM) was 106% and the viability, T/C (second compound 30 pM, first compound 1 µM) was 99.6%. The viability, T/C (second compound 30 pM, first compound 3.16 µM) was 98.4%, the viability, T/C (second compound 30 pM, first compound 10 µM) was 77.7% and the viability, T/C (second compound 94.9 pM, first compound 0.0316 µM) was 91.5%. For the same compound, the viability, T/C (second compound 94.9 pM, first compound 0.1 µM) was 85%, the viability, T/C (second compound 94.9 pM, first compound 0.316 µM) was 93% and the viability, T/C (second compound 94.9 pM, first compound 1 µM) was 92.7%. The viability, T/C (second compound 94.9 pM, first compound 3.16 µM) was 94.6%, the viability, T/C (second compound 94.9 pM, first compound 10 µM) was 60.2% and the viability, T/C (second compound 0.0003 µM, first compound 0.0316 µM) was 40.2%. The viability, T/C (second compound 0.0003 µM, first compound 0.1 µM) was 37%, the viability, T/C (second compound 0.0003 µM, first compound 0.316 µM) was 31.7% and the viability, T/C (second compound 0.0003 µM, first compound 1 µM) was 32.1%. It also gave a viability, T/C (second compound 0.0003 µM, first compound 3.16 µM) of 45.2%, a viability, T/C (second compound 0.0003 µM, first compound 10 µM) of 22.1% and a viability, T/C (second compound 0.000949 µM, first compound 0.0316 µM) of 0.4%. For the same compound, the viability, T/C (second compound 0.000949 µM, first compound 0.1 µM) was 0.3%, the viability, T/C (second compound 0.000949 µM, first compound 0.316 µM) was 0.49% and the viability, T/C (second compound 0.000949 µM, first compound 1 µM) was 1.21%. It also gave a viability, T/C (second compound 0.000949 µM, first compound 3.16 µM) of 1.2%, a viability, T/C (second compound 0.000949 µM, first compound 10 µM) of 0.62% and a viability, T/C (second compound 0.003 µM, first compound 0.0316 µM) of 1.38%. It also gave a viability, T/C (second compound 0.003 µM, first compound 0.1 µM) of 1.4%, a viability, T/C (second compound 0.003 µM, first compound 0.316 µM) of 1.38% and a viability, T/C (second compound 0.003 µM, first compound 1 µM) of 1.37%. It also gave a viability, T/C (second compound 0.003 µM, first compound 3.16 µM) of 1.41% and a viability, T/C (second compound 0.003 µM, first compound 10 µM) of 1.51%.

With `CNCc1ccc(-c2cc(-c3nc(-c4ccc(S(=O)(=O)C(C)C)cc4)cnc3N)on2)cc1` the viability, T/C (compound 0.00949 µM) was 99.8% and 99.6% and 96.2%, the viability, T/C (compound 0.03 µM) was 104% and 99.5% and 92.1% and the viability, T/C (compound 0.0949 µM) was 94.8% and 98.9% and 94.1%. For the same compound, the viability, T/C (compound 0.3 µM) was 71.1% and 34.7% and 85.6%, the viability, T/C (compound 0.949 µM) was 8.67% and 9.93% and 16.6% and the viability, T/C (compound 3 µM) was 2.53% and 1.43% and 6.14%. The IC50 (curve of compound) was 442 nM and 228 nM and 544 nM.

In the case of `COc1cc(C)[nH]c(=O)c1CN1CCc2c(Cl)cc(C(OC)C3COC3)c(Cl)c2C1=O` (configuration not stated) + Cn1nnc2c(C(N)=O)ncn2c1=O, the IC50 (curve of first compound, second compound 1 µM) is reported as > 10000 nM, the IC50 (curve of first compound, second compound 3.16 µM) is reported as > 10000 nM and the IC50 (curve of first compound, second compound 10 µM) is reported as > 10000 nM. For the same compound, the IC50 (curve of first compound, second compound 31.6 µM) was > 10000 nM, the IC50 (curve of first compound, second compound 100 µM) was > 10000 nM and the viability, T/C (second compound 1 µM, first compound 0.0316 µM) was 102%. The viability, T/C (second compound 1 µM, first compound 0.1 µM) was 99.6%, the viability, T/C (second compound 1 µM, first compound 0.316 µM) was 92.1% and the viability, T/C (second compound 1 µM, first compound 1 µM) was 90.6%. It also gave a viability, T/C (second compound 1 µM, first compound 3.16 µM) of 83.7%, a viability, T/C (second compound 1 µM, first compound 10 µM) of 79.4% and a viability, T/C (second compound 3.16 µM, first compound 0.0316 µM) of 103%. It also gave a viability, T/C (second compound 3.16 µM, first compound 0.1 µM) of 98.5%, a viability, T/C (second compound 3.16 µM, first compound 0.316 µM) of 95.7% and a viability, T/C (second compound 3.16 µM, first compound 1 µM) of 84.2%. It also gave a viability, T/C (second compound 3.16 µM, first compound 3.16 µM) of 84%, a viability, T/C (second compound 3.16 µM, first compound 10 µM) of 83.6% and a viability, T/C (second compound 10 µM, first compound 0.0316 µM) of 98.7%. For the same compound, the viability, T/C (second compound 10 µM, first compound 0.1 µM) was 96.7%, the viability, T/C (second compound 10 µM, first compound 0.316 µM) was 92.3% and the viability, T/C (second compound 10 µM, first compound 1 µM) was 95.1%. The viability, T/C (second compound 10 µM, first compound 3.16 µM) was 85%, the viability, T/C (second compound 10 µM, first compound 10 µM) was 81.9% and the viability, T/C (second compound 31.6 µM, first compound 0.0316 µM) was 104%. For the same compound, the viability, T/C (second compound 31.6 µM, first compound 0.1 µM) was 98.5%, the viability, T/C (second compound 31.6 µM, first compound 0.316 µM) was 93.4% and the viability, T/C (second compound 31.6 µM, first compound 1 µM) was 93.3%. The viability, T/C (second compound 31.6 µM, first compound 3.16 µM) was 84.8%, the viability, T/C (second compound 31.6 µM, first compound 10 µM) was 78.4% and the viability, T/C (second compound 100 µM, first compound 0.0316 µM) was 99%. It also gave a viability, T/C (second compound 100 µM, first compound 0.1 µM) of 98.7%, a viability, T/C (second compound 100 µM, first compound 0.316 µM) of 96.3% and a viability, T/C (second compound 100 µM, first compound 1 µM) of 87.4%. For the same compound, the viability, T/C (second compound 100 µM, first compound 3.16 µM) was 87% and the viability, T/C (second compound 100 µM, first compound 10 µM) was 81.8%.
